Experimental data as given in US20190233884A1 (University of Southern California, priority 2016, published 2019).

System: patients with refractory metastatic colorectal cancer (mCRC)
Assay: PFS, OS and disease control in the training (evaluation) cohort of refractory mCRC patients receiving TAS-102 (n=52, Japan), by baseline characteristics, SNP genotype and toxicity
Format: in vivo, human
Conditions: for Overall Survival Median, months / Progression-Free Survival Median, months / Overall Survival HR / Progression-Free Survival HR / HR for OS / HR for PFS: evaluation cohort
Experimental: All patients underwent the treatment in salvage-line setting. […]
Genomic DNA was extracted from peripheral whole blood in patients of all cohorts using the QIAmp Kit (Qiagen, Valencia, Calif., USA) according to the manufacturer's protocol (www.qiagen.com). The candidate SNPs were genotyped using PCR-based direct DNA sequence analysis by ABI 3100A Capillary Genetic Analyzer and Sequencing Scanner v1.0 (Applied Biosystems). Amplification of extracted DNA was carried out using both forward and reverse primers for each gene polymorphism as shown in Table 1. […] The investigators analyzing SNPs were blinded to the clinical data of the study patients.
The primary endpoint in this study was progression-free survival (PFS), and the secondary endpoints were overall survival (OS) and disease control rate (DCR). PFS was calculated from the date of starting treatment to the first observation of disease progression or death from any cause. If a patient had no disease progression or death, PFS was censored at the date of last follow up. OS was calculated from the date of starting treatment until the date of death from any cause or the date of the last follow-up, at which point OS was censored. The disease control rate (DCR) was defined as the proportion of patients who achieved a stable disease (SD) or […] according to RECISTv1.1. Chi-square test was used to examine the difference in baseline patient characteristics among the three cohorts. Allelic distribution of all SNPs by ethnicity for deviation from Hardy-Weinberg equilibrium and the allelic frequencies of SNPs were tested using the Chi-square tests with one degree of freedom. The associations between candidate SNPs and disease control, and toxicities were examined using contingency tables and Fisher's exact test. The associations of SNPs with PFS and OS were analysed using Kaplan-Meier curves and the log-rank test. Because the true mode of inheritance of candidate SNPs was not established yet, a codominant or dominant genetic model if appropriate was considered.
All patients underwent the treatment in salvage-line setting. […] In all patients, adverse events were graded according to the Common Terminology Criteria for Adverse Events, version 4.0. […]
Genomic DNA was extracted from peripheral whole blood in patients of all cohorts using the QIAmp Kit (Qiagen, Valencia, Calif., USA) according to the manufacturer's protocol (www.qiagen.com). The candidate SNPs were tested using PCR-based direct DNA sequence analysis by ABI 3100A Capillary Genetic Analyzer and Sequencing Scanner v1.0 (Applied Biosystems). […] The investigators analyzing SNPs were blinded to the clinical data.
The primary endpoint in this study was progression-free survival (PFS), and the secondary endpoints were overall survival (OS) and disease control rate (DCR).

[1] = Performance status ECOG 1 vs ECOG 0, univariate
[2] = Peritoneal No vs Yes, univariate
[3] = Pre-chemo numbers ≥4 vs <4, univariate
[4] = Primary tumor resection No vs Yes, univariate
[5] = Prior EGFR No vs Yes, univariate
[6] = Prior REGORA No vs Yes, univariate
[7] = Prior bev No vs Yes, univariate
[8] = Tumor site Left vs Right, univariate
[9] = XRCC3 rs861539 G/A vs G/G, univariate
[10] = p21 rs1059234 Any C vs T/T, multivariable
[11] = p21 rs1059234 Any C vs T/T, univariate
[12] = p21 rs1059234 C/C vs T/T, multivariable
[13] = p21 rs1059234 C/C vs T/T, univariate
[14] = p21 rs1059234 T/C vs T/T, multivariable
[15] = p21 rs1059234 T/C vs T/T, univariate
[16] = p21 rs1801270 A/C vs A/A, multivariable
[17] = p21 rs1801270 A/C vs A/A, univariate

Substance: Trifluridine/tipiracil [TAS-102]
- Overall Survival Median, months (Number of metastases ≤2): 8.3 months
- Progression-Free Survival Median, months (Number of metastases ≤2): 2.7 months
- Overall Survival Median, months (Performance status ECOG 0): 8.7 months
- Progression-Free Survival Median, months (Performance status ECOG 0): 2.9 months
- Overall Survival Median, months (Performance status ECOG 1): 7.2 months
- Progression-Free Survival Median, months (Performance status ECOG 1): 2.7 months
- Overall Survival HR [1]: 1.42
- Progression-Free Survival HR [1]: 1.06
- Overall Survival Median, months (Peritoneal No): 8.3 months
- Progression-Free Survival Median, months (Peritoneal No): 2.3 months
- Overall Survival HR [2]: 0.84
- Progression-Free Survival HR [2]: 1.48
- Overall Survival Median, months (Peritoneal Yes): 6.3 months
- Progression-Free Survival Median, months (Peritoneal Yes): 3.1 months
- Overall Survival Median, months (Pre-chemo numbers <4): 8.7 months
- Progression-Free Survival Median, months (Pre-chemo numbers <4): 3.0 months
- Overall Survival Median, months (Pre-chemo numbers ≥4): 6.3 months
- Progression-Free Survival Median, months (Pre-chemo numbers ≥4): 2.1 months
- Overall Survival HR [3]: 2.48
- Progression-Free Survival HR [3]: 1.73
- Overall Survival Median, months (Primary tumor resection No): 8.1+ months
- Progression-Free Survival Median, months (Primary tumor resection No): 2.1 months
- Overall Survival HR [4]: 1.72
- Progression-Free Survival HR [4]: 1.39
- Overall Survival Median, months (Primary tumor resection Yes): 8.1 months
- Progression-Free Survival Median, months (Primary tumor resection Yes): 3.0 months
- Overall Survival Median, months (Prior EGFR No): 15.6+ months
- Progression-Free Survival Median, months (Prior EGFR No): 3.7 months
- Overall Survival HR [5]: 0.35
- Progression-Free Survival HR [5]: 0.49
- Overall Survival Median, months (Prior EGFR Yes): 6.3 months
- Progression-Free Survival Median, months (Prior EGFR Yes): 2.1 months
- Overall Survival Median, months (Prior REGORA No): 14.8+ months
- Progression-Free Survival Median, months (Prior REGORA No): 3.7 months
- Overall Survival HR [6]: 0.50
- Progression-Free Survival HR [6]: 0.65
- Overall Survival Median, months (Prior REGORA Yes): 8.1 months
- Progression-Free Survival Median, months (Prior REGORA Yes): 2.1 months
- Overall Survival Median, months (Prior bev No): 4.1 months
- Progression-Free Survival Median, months (Prior bev No): 2.5 months
- Overall Survival HR [7]: 3.43
- Progression-Free Survival HR [7]: 1.86
- Overall Survival Median, months (Prior bev Yes): 8.3 months
- Progression-Free Survival Median, months (Prior bev Yes): 2.9 months
- Overall Survival Median, months (Sex Female): 8.3 months
- Progression-Free Survival Median, months (Sex Female): 3.4 months
- Overall Survival HR (Sex Female vs Male, univariate): 0.47
- Progression-Free Survival HR (Sex Female vs Male, univariate): 0.60
- Overall Survival Median, months (Sex Male): 4.9 months
- Progression-Free Survival Median, months (Sex Male): 2.1 months
- Overall Survival Median, months (Tumor site Left): 8.1 months
- Progression-Free Survival Median, months (Tumor site Left): 2.9 months
- Overall Survival HR [8]: 0.97
- Progression-Free Survival HR [8]: 1.30
- Overall Survival Median, months (Tumor site Right): 8.7 months
- Progression-Free Survival Median, months (Tumor site Right): 3.3 months
- HR for OS (XRCC3 rs861539, multivariable): 0.31
- HR for PFS (XRCC3 rs861539, multivariable): 0.52
- HR for OS [9]: 0.25
- HR for PFS [9]: 0.44
- OS median, months (95% CI) (p21 rs1059234 Any C): 12.4 (5.4, 15.6+) months
- PFS median, months (95% CI) (p21 rs1059234 Any C): 2.7 (2.1, 3.5) months
- OS HR (95% CI)‡ [10]: 0.50 (0.20, 1.25)
- PFS HR (95% CI) ‡ [10]: 0.74 (0.37, 1.49)
- OS HR (95% CI)† [11]: 0.64 (0.27, 1.56)
- PFS HR (95% CI) † [11]: 0.88 (0.44, 1.74)
- OS median, months (95% CI) (p21 rs1059234 C/C): 6.3 (2.7, 10.7+) months
- PFS median, months (95% CI) (p21 rs1059234 C/C): 2.9 (1.6, 4.9) months
- OS HR (95% CI)‡ [12]: 0.67 (0.21, 2.12)
- PFS HR (95% CI) ‡ [12]: 0.73 (0.30, 1.74)
- OS HR (95% CI)† [13]: 0.76 (0.25, 2.35)
- PFS HR (95% CI) † [13]: 0.95 (0.42, 2.16)
- OS median, months (95% CI) (p21 rs1059234 T/C): 12.4 (5.3, 15.6+) months
- PFS median, months (95% CI) (p21 rs1059234 T/C): 2.7 (2.1, 3.5) months
- OS HR (95% CI)‡ [14]: 0.42 (0.15, 1.19)
- PFS HR (95% CI) ‡ [14]: 0.75 (0.35, 1.60)
- OS HR (95% CI)† [15]: 0.59 (0.22, 1.57)
- PFS HR (95% CI) † [15]: 0.84 (0.40, 1.76)
- OS median, months (95% CI) (p21 rs1059234 T/T): 7.2 (3.3, 8.7) months
- PFS median, months (95% CI) (p21 rs1059234 T/T): 3.3 (1.6, 4.1) months
- OS median, months (95% CI) (p21 rs1801270 A/A): 7.2 (3.3, 8.7) months
- PFS median, months (95% CI) (p21 rs1801270 A/A): 3.3 (1.6, 4.1) months
- OS median, months (95% CI) (p21 rs1801270 A/C): 12.4 (5.3, 15.6+) months
- PFS median, months (95% CI) (p21 rs1801270 A/C): 2.3 (1.8, 3.5) months
- OS HR (95% CI)‡ [16]: 0.39 (0.13, 1.11)
- PFS HR (95% CI) ‡ [16]: 0.72 (0.34, 1.55)
- OS HR (95% CI)† [17]: 0.53 (0.19, 1.47)
- PFS HR (95% CI) † [17]: 0.82 (0.39, 1.74)
- OS median, months (95% CI) (p21 rs1801270 Any C): 12.4 (5.4, 15.6+) months
- PFS median, months (95% CI) (p21 rs1801270 Any C): 2.7 (2.1, 3.5) months
- OS HR (95% CI)‡ (p21 rs1801270 Any C vs A/A, multivariable): 0.50 (0.20, 1.25)
